Values quoted from earlier work, collected in patent US12115173B2 (Elba Laboratories, priority 2021, dated 2024).

- pKa: about 3.8
Compound: O=C(O)CO [glycolic acid]
